Earlier results in patent publication US20210319872A1, “DRUG AND DEVICE COMBINATION PRODUCTS WITH IMPROVED SAFETY AND EFFICACY PROFILES” (priority 2016, published 2021).

Conditions: in vivo

Q: Which Gastrointestinal hemorrhage does the source give for `O=C(NC[C@H]1CN(c2ccc(N3CCOCC3=O)cc2)C(=O)O1)c1ccc(Cl)s1` [Rivaroxaban (Xarelto)] here?
A: fibrillation, 3.1%)

Q: What about the Syncope of the same molecule?
A: Cardiovascular: Syncope (1.2%)

Q: With `CCOc1nc2cccc(C(=O)O)c2n1Cc1ccc(-c2ccccc2-c2nnn[nH]2)cc1` [Candesartan (Atacand)] as the molecule, how does the Backache read?
A: Musculoskeletal: Backache (3%.)

Q: And the Dizziness?
A: Neurologic: Dizziness (less than 5%)

Q: What about the Hypotension of the same molecule?
A: Cardiovascular: Hypotension (18.8%)

Q: What about the Pharyngitis of the same molecule?
A: Respiratory: Pharyngitis (2%), Rhinitis (2%), Upper respiratory

Q: And the Rhinitis?
A: Respiratory: Pharyngitis (2%), Rhinitis (2%), Upper respiratory

Q: What about the Upper respiratory infection of the same molecule?
A: infection (6%)

Q: With `Clc1ccccc1CN1CCc2sccc2C1` [Ticlopidine] as the molecule, how does the Neutropenia read?
A: 2.4%

Q: What does the source list for `COc1ccc2c3c1O[C@H]1C(=O)CC[C@H]4[C@@H](C2)N(C)CC[C@]314` [Hydrocodone, reference compound]?
A: Abdominal pain: Gastrointestinal: Abdominal pain (1% to less than 5%),; Constipation: Constipation (3% to 11%), Nausea (7% to 10%), Vomiting (3% to; Difficulty swallowing: Gastrointestinal: Difficulty swallowing (less than 1%); Dizziness: Neurologic: Dizziness (2% to 3%), Headache (2% to 4%),; Fatigue: Other: Fatigue (1% to 4%); Headache: Neurologic: Dizziness (2% to 3%), Headache (2% to 4%),; Hypotension: Cardiovascular: Hypotension (less than 1%), Orthostatic; Opioid withdrawal: Opioid withdrawal (less than 1%); Orthostatic hypotension: hypotension (less than 1%), Prolonged QT interval, Syncope; Peripheral edema: Cardiovascular: Peripheral edema (1% to less than 5%%); Pruritus: Dermatologic: Pruritus (0% to less than 5%); Serious side effect, Cardiovascular: hypotension (less than 1%), Prolonged QT interval, Syncope; Serious side effect, Neurologic: Neurologic: Raised intracranial pressure, Seizure; Serious side effect, Other: Other: Drug withdrawal syndrome in neonate of dependent mother,; Serious side effect, Respiratory: Respiratory: Respiratory depression; Somnolence: Somnolence (1% to 5%), Tremor (3%); Spasm: Musculoskeletal: Spasm (1% to less than 5%); Tremor: Somnolence (1% to 5%), Tremor (3%); Upper respiratory infection: Respiratory: Upper respiratory infection (1% to 3%); Urinary tract infectious disease: Renal: Urinary tract infectious disease (1% to 5%); Xerostomia: 6%), Xerostomia (1% to less than 5%)

Q: With `C[C@@H](Cc1ccccc1)NC(=O)[C@@H](N)CCCCN` [Lisdexamfetamine (Vyvanse)] as the molecule, how does the Anxiety read?
A: Psychiatric: Anxiety (Adults, 5% to 6%), Irritability (pediatrics,

Q: What about the “Common side effects, listed without incidence” value of the same molecule?
A: Endocrine metabolic: Decreased body growth, Weight decreased

Q: And the Diarrhea?
A: Gastrointestinal: Diarrhea (adults, 7%), Loss of appetite (adults, 8%

Q: And the Irritability?
A: 10%)

Q: And the Rash?
A: Dermatologic: Rash (pediatrics, 3%)

Q: What about the Upper abdominal pain of the same molecule?
A: 6%), Upper abdominal pain (pediatrics, 12%), Vomiting

Q: And the Vomiting?
A: (pediatrics, 9%), Xerostomia (Adults, 26% to 36%; pediatrics, 4%

Q: What about the Weight decreased of the same molecule?
A: (pediatrics, 9%)

Q: And the Xerostomia?
A: (pediatrics, 9%), Xerostomia (Adults, 26% to 36%; pediatrics, 4%

Q: Which Constipation does the source give for `CNCC[C@H](Oc1cccc2ccccc12)c1cccs1` [Duloxetine (Cymbalta)] here?
A: Gastrointestinal: Constipation (9% to 10%), Decrease in appetite

Q: And the Diaphoresis?
A: Dermatologic: Diaphoresis (Adult, 6%; pediatric, less than 2%)

Q: And the Diarrhea?
A: (6% to 10%), Diarrhea (Adult, 9%; pediatric, 6%), Nausea (18% to

Q: And the Dizziness?
A: Neurologic: Asthenia, Dizziness (Adult, 9%; pediatric, 8%),

Q: What about the Headache of the same molecule?
A: Headache (Adult, 13% to 14%; pediatric, 18%), Hypersomnia,

Q: And the Hypertension?
A: Cardiovascular: Hypertension (2%)

Q: And the Insomnia?
A: Insomnia (7% to 10%), Sedated, Somnolence

Q: And the Myocardial infarction?
A: Cardiovascular: Hypertensive crisis, Myocardial infarction (0.01%

Q: And the Xerostomia?
A: 23%), Xerostomia (Adult, 11% to 14%; pediatric, 2%)

Q: For `CCCCNc1cc(C(=O)O)cc(S(N)(=O)=O)c1Oc1ccccc1` [Bumetanide (Bumex)], which “Azotemia (incidence)” value is on record?
A: Renal: Azotemia (10.6%)

Q: What about the “Cramp (incidence)” value of the same molecule?
A: Musculoskeletal: Cramp (1.1%)

Q: What about the “Dizziness (incidence)” value of the same molecule?
A: Neurologic: Dizziness (1.1%), Headache (0.6%)

Q: And the “Encephalopathy (incidence)” value?
A: Neurologic: Encephalopathy (0.6%)

Q: What about the “Headache (incidence)” value of the same molecule?
A: Neurologic: Dizziness (1.1%), Headache (0.6%)

Q: What about the “Hyperuricemia (incidence)” value of the same molecule?
A: Endocrine metabolic: Hyperuricemia (18.4%), Hypochloremia

Q: And the “Hypochloremia (incidence)” value?
A: (14.9%), Hypokalemia (14.7%)

Q: And the “Hypokalemia (incidence)” value?
A: (14.9%), Hypokalemia (14.7%)

Q: And the “Hypotension (incidence)” value?
A: Cardiovascular: Hypotension (0.8%)

Q: What about the “Nausea (incidence)” value of the same molecule?
A: Gastrointestinal: Nausea (0.6%)

Q: And the “Serious side effect listed (incidence not given)” value?
A: Dermatologic: Stevens-Johnson syndrome

Q: What about the “Thrombocytopenia (incidence)” value of the same molecule?
A: Hematologic: Thrombocytopenia (0.2%)

Q: With `COc1ccccc1OCCNCC(O)COc1cccc2[nH]c3ccccc3c12` (centres unmarked) [carvedilol, Common brand names - Coreg*] as the molecule, how does the Abnormal weight gain read?
A: Endocrine metabolic: Abnormal weight gain (10% to 12%),

Q: And the Atrioventricular block?
A: Cardiovascular: Atrioventricular block (greater than 1% to 3%)

Q: What about the Bradyarrhythmia of the same molecule?
A: Cardiovascular: Bradyarrhythmia (3% to 10%), Hypotension (1.8%

Q: And the Diarrhea?
A: Gastrointestinal: Diarrhea (2% to 12%)

Q: What about the Dizziness of the same molecule?
A: Neurologic: Dizziness (6% to 33%)

Q: And the Erectile dysfunction?
A: Reproductive: Erectile dysfunction (13.5%)

Q: And the Fatigue?
A: Other: Fatigue (24%)

Q: And the Hyperglycemia?
A: Hyperglycemia (5% to 12%)

Q: And the Hypotension?
A: Cardiovascular: Bradyarrhythmia (3% to 10%), Hypotension (1.8%

Q: What does the source list for `CC(C)NCC(O)COc1cccc2ccccc12` (centres unmarked) [Propranolol (Inderal)]?
A: Dizziness: Neurologic: Dizziness (Hypertension, 4% to 7%), Sleep disorder; Fatigue: Other: Fatigue (5% to 7%)

Q: Which results are given for `O=C1CCc2ccc(OCCCCN3CCN(c4cccc(Cl)c4Cl)CC3)cc2N1` [Aripiprazole (Abilify)]?
A: Akathisia: Neurologic: Akathisia (2% to 25%), Dizziness (4% to 10%),; Angioedema: Other: Angioedema (0.1% to less than 1%), Increased body; Anxiety: Psychiatric: Anxiety (4% to 17%), Restlessness (2% to 12%); Cardiorespiratory arrest: Cardiovascular: Cardiorespiratory arrest (0.1% to 1%),; Cardiorespiratory failure: Cardiorespiratory failure (0.1% to 1%), Myocardial infarction; Constipation: Gastrointestinal: Constipation (5% to 11%), Nausea (8% to 15%),; Diabetic ketoacidosis: Endocrine metabolic: Diabetic ketoacidosis (Less than 0.1%); Dizziness: Neurologic: Akathisia (2% to 25%), Dizziness (4% to 10%),; Extrapyramidal sign: Extrapyramidal sign (2% to 27.3%), Headache (10% to 27%),; Fatigue: Other: Fatigue (2% to 17%); Headache: Extrapyramidal sign (2% to 27.3%), Headache (10% to 27%),; Leukopenia: Hematologic: Agranulocytosis, Leukopenia (Less than 1%),; Myocardial infarction: (0.1% to 1%), Prolonged QT interval (0.1% to 1%); Nausea: Gastrointestinal: Constipation (5% to 11%), Nausea (8% to 15%),; Neutropenia: Neutropenia (Less than 1%); Pancreatitis: Gastrointestinal: Pancreatitis (Less than 0.1%); Prolonged QT interval: (0.1% to 1%), Prolonged QT interval (0.1% to 1%); Restlessness: Psychiatric: Anxiety (4% to 17%), Restlessness (2% to 12%); Rhabdomyolysis: Musculoskeletal: Rhabdomyolysis (Less than 0.1%); Sedated: Insomnia (8% to 18%), Sedated (3% to 21%), Somnolence (6% to; Seizure: Neurologic: Cerebrovascular accident, Seizure (Up to 0.3%),; Tremor: 26.3%), Tremor (2% to 11.8%); Vomiting: Vomiting (3% to 11%)

Q: Which results are given for `O=C1CN=C(c2ccccc2Cl)c2cc([N+](=O)[O-])ccc2N1` [Klonopin (clonazepam)]?
A: Ataxia: Neurologic: Ataxia (5% to 30%), Coordination problem (6%),; Coordination problem: Neurologic: Ataxia (5% to 30%), Coordination problem (6%),; Depression: Psychiatric: Depression (7%), Suicidal thoughts; Dizziness: Dizziness (8%), Somnolence (37% to 50%); Fatigue: Other: Fatigue (7%); Problem behavior: Psychiatric: Problem behavior (25%); Serious side effect, Psychiatric: Psychiatric: Depression (7%), Suicidal thoughts; Serious side effect, Respiratory: Respiratory: Respiratory depression; Somnolence: Dizziness (8%), Somnolence (37% to 50%); Upper respiratory infection: Respiratory: Upper respiratory infection (8%)

Q: What does the source list for `CCCC(=O)Nc1ccc(OCC(O)CNC(C)C)c(C(C)=O)c1` (centres unmarked) [Acebutolol (Sectral)]?
A: Angina: Cardiovascular: Angina (2%), Bradyarrhythmia (2%), Heart failure; Bradyarrhythmia: Cardiovascular: Angina (2%), Bradyarrhythmia (2%), Heart failure; Dizziness: Neurologic: Dizziness (6%), Headache (6%); Fatigue: Other: Fatigue (11%); Headache: Neurologic: Dizziness (6%), Headache (6%); Heart failure: (2%)

Q: For `CCC(=O)O[C@@H](O[P@](=O)(CCCCc1ccccc1)CC(=O)N1C[C@H](C2CCCCC2)C[C@H]1C(=O)O)C(C)C` [Fosinopril (Monopril)], which Cough is on record?
A: Respiratory: Cough (2.2% to 9.7%)

Q: And the Dizziness?
A: Neurologic: Dizziness (1.6% to 11.9%)

Q: What about the Hyperkalemia of the same molecule?
A: Endocrine metabolic: Hyperkalemia (2.6%)

Q: And the Hypotension?
A: Cardiovascular: Hypotension (2.4% to 4.4%)

Q: What about the Nausea and vomiting of the same molecule?
A: Gastrointestinal: Nausea and vomiting (1.2% to 2.2%)

Q: For `N=C(N)NC(=O)c1nc(Cl)c(N)nc1N` [Amiloride (Midamor)], which Asthenia is on record?
A: Musculoskeletal: Asthenia (greater than 1% to less than 3%),

Q: What about the “Cardiac dysrhythmia (incidence)” value of the same molecule?
A: Cardiovascular: Cardiac dysrhythmia (1% or less), Palpitations (1%

Q: What about the “Cough (incidence)” value of the same molecule?
A: Respiratory: Cough (greater than 1% to less than 3%), Dyspnea

Q: And the Cramp?
A: Cramp (greater than 1% to less than 3%)

Q: And the Diarrhea?
A: Gastrointestinal: Diarrhea (3% to 8%), Loss of appetite (3% to 8%),

Q: And the Dizziness?
A: Neurologic: Dizziness (greater than 1% to less than 3%), Headache

Q: What about the “Dyspnea (incidence)” value of the same molecule?
A: (greater than 1% to less than 3%)

Q: And the “Encephalopathy (incidence)” value?
A: Neurologic: Encephalopathy (greater than 1% to less than 3%)

Q: And the “Headache (incidence)” value?
A: (3% to 8%)

Q: What about the “Hyperkalemia (incidence)” value of the same molecule?
A: Endocrine metabolic: Hyperkalemia (10%)

Q: What about the Nausea of the same molecule?
A: Nausea (3% to 8%), Vomiting (3% to 8%)

Q: And the “Palpitations (incidence)” value?
A: Cardiovascular: Cardiac dysrhythmia (1% or less), Palpitations (1%

Q: What about the “Raised intraocular pressure (incidence)” value of the same molecule?
A: Ophthalmic: Raised intraocular pressure (1% or less)

Q: What about the Rash of the same molecule?
A: Dermatologic: Rash (1% or less)

Q: And the “Serious side effect listed (incidence not given)” value?
A: Hematologic: Aplastic anemia, Neutropenia

Q: What about the Vomiting of the same molecule?
A: Nausea (3% to 8%), Vomiting (3% to 8%)
